Marks after values point to notes of the source that are not given here.
How the values were obtained:
[1] = Hydroxyl radicals scavenging activity (Fe3+/ascorbic acid system, competition with DMSO); conditions: 0.1 mM; no = no action under the used experimental conditions
Experimental: Thus we evaluated our acids for their competition with DMSO for ˙OH radicals was measured, hydroxyl radicals were produced by the Fe^3+/ascorbic acid system and expressed as percent inhibition of formaldehyde formation at 0.1 mM concentration (Table 3).
The hydroxyl radicals were produced by the Fe ^3+/ascorbic acid system. EDTA (0.1 mM), Fe ^3+ (167 μM), DMSO (33 mM) in phosphate buffer (50 mM, pH 7.4), the tested compounds (0.1 mM) and ascorbic acid (10 mM) were mixed in test tubes. The solutions were incubated at 37 °C for 30 min. The reaction was stopped by CCl3COOH (17% w/v) (Table 4) and the % scavenging activity of the tested compounds for hydroxyl radicals was given.

[2] = Determination of RM values by reversed phase TLC (RPTLC); assay type: physicochemical; conditions: CH3OH:H2O:CH3COOH (77:23:0.1), average of at least 10 measurements
Experimental: Lipophilicity represents a significant physicochemical property for the absorption, distribution, metabolism and excretion of drugs (ADME properties). In this study the experimentally lipophilicity as RM values is measured by the reverse-phase thin layer chromatography (RPTLC), a reliable, fast and convenient method. The obtained values were compared with the corresponding log P values in n-octanol-buffer estimated by ClogP [33, 34]. It is well known that lipophilicity plays an important role at the ADME properties. In the present study additionally, it influences the radical scavenging property (i.e., in an aqueous phase) or the chain-breaking antioxidant activity (i.e., in biological membranes).
Reversed phase TLC (RPTLC) was studied using silica gel plates saturated with 55% (v/v) liquid paraffin in light petroleum ether and methanol/water mixture (77/23, v/v) containing 0.1% of acetic acid was used as a mobile phase. Spots were detected under UV light or by iodine vapours. RM values were determined by the corresponding Rf values (from ten individual measurements) using the equation RM = log [(1/Rf) − 1] [23, 24, 25].

A-549 (lung) = experiment: SRB cytotoxicity assay, A-549; assay type: cell-based; conditions: Homo sapiens, A549, 50% growth inhibition, 48 h exposure
Experimental: (§1) Human cancer cell lines used as targets were HT-29 (colon), A-549 (lung), OAW-42 (ovarian), MDA-MB-231 (breast), HeLa (immortal cells from cervical cancer). All cells were obtained from the American Type Culture Collection (ATCC). Cells were routinely grown as monolayer cell cultures in T-75 flasks (Costar) in an atmosphere containing 5% CO2 in air and 100% relative humidity at 37 °C and subcultured twice a week, restricting the total number of cell passages below 20. The culture medium used was Dulbecco’s modified Eagle’s medium (DMEM, Gibco, Grand Island, NY, USA) supplemented with 10% fetal bovine serum (Gibco), 2 mM glutamine (Sigma), 100 μg/mL streptomycin and 100 IU/mL penicillin.
(§2) Cell passages were carried out by detaching adherent, logarithmically growing cells after addition of 2–3 mL of a mixture of 0.05% solution of trypsin (Gibco, 1:250) in phosphate-buffered saline (PBS) with 0.02% EDTA and incubation for 3–5 min at 37 °C. For the experiments, cells were plated (100 μL containing 10,000 cells/well) in 96-well flat-bottom microplates microplates (Costar-Corning, Acton, MA 01720, USA) so that untreated cells were in exponential growth phase at the time of cytotoxicity evaluation. Cells were left for 24 h at 37 °C to resume exponential growth and stabilization and afterwards exposed to tested agents for 48 h by the addition of an equal volume (100 μL) of either complete culture medium (control wells), or twice the final drug concentrations diluted in complete culture medium (test wells). Drug cytotoxicity was measured by means of the SRB colorimetric assay estimating the survival fractions (SF) as the percent of control (untreated cells) absorbance. The SRB assay was carried out as previously described and modified by our group. In brief, culture medium was aspirated prior to fixation using a microplate-multiwash device (Tri-Continent Scientific, Inc., Grass Valley, CA, USA) and 50 μL of 10% cold (4 °C) trichloroacetic acid (TCA) were gently added to the wells. Microplates were left for 30 min at 4 °C, washed five times with deionized water and left to dry at room temperature for at least 24 h. Subsequently, 70 μL of 0.4% (w/v) sulforhodamine B (Sigma) in 1% acetic acid solution were added to each well and left at room temperature for 20 min. SRB was removed and the plates were washed five times with 1% acetic acid before air drying. Bound SRB was solubilized with 200 μL of 10 mM unbuffered Tris-base solution and plates were left on a plate shaker for at least 10 min. Absorbance was read in a 96-well plate reader at 492 nm subtracting the background measurement at 620 nm. The test optical density (OD) value was defined as the absorbance of each individual well, minus the blank value (“blank” is the mean optical density of the background control wells, n = 8). Mean values and the coefficient of variation (CV) from six replicate wells were calculated automatically. Results were expressed as the “survival fraction” (SF), as shown below.
(§3) For each tested compound a dose-effect curve was produced. Sextuplicate determinations gave a CV (Standard Deviation/mean %) of much less than 10%, resulting in standard error (SE) which was very low in all cases. The data showing inhibition of cellular growth are expressed as the fraction of cells that remains unaffected (fu) (survival fraction, SF), which is derived from the following equation: fu = ODx/ODc where ODx and ODc represent the test and the control optical density, respectively.

MDA-MB-231 (breast) = experiment: SRB cytotoxicity assay, MDA-MB-231; assay type: cell-based; conditions: Homo sapiens, 50% growth inhibition, 48 h exposure
Experimental: as §1, §2, §3

Row | RM (±SD) [2] | Structure (SMILES) | HO (%) (±SD) [1] | IC50 (A-549 (lung)) [µM] | IC50 (MDA-MB-231 (breast)) [µM]
1 | −0.895 (0.004) ^e | N#Cc1ccc(C=C(C(=O)O)c2ccccc2)cc1 [Compound 1i, 3-(4-Cyanophenyl)-2-phenylacrylic acid] | no | > 240 | > 240
2 | 0.987 (0.018) ^e | O=C(O)C(=CC=Cc1ccccc1)c1ccccc1 [Compound 3i, 2,5-Diphenylpenta-2,4-dienoic acid] | 81 ± 1.9% | > 240 | > 240
3 | −0.847 (0.044) ^e | O=C(O)C=CC(Br)=Cc1ccccc1 [Compound 4ii, 4-Bromo-5-phenylpenta-2,4-dienoic acid] | 100 ± 1.8% | 173.5 ± 1.4 | 47.5 ± 0.7
4 | −0.706 (0.062) ^e | O=C(O)C(=CC=Cc1ccc([N+](=O)[O-])cc1)c1ccccc1 [Compound 2i, 5-(4-Nitrophenyl)-2-phenylpenta-2,4-dienoic acid] | 33 ± 0.8% | 134 ± 1.6 | 199 ± 1.9
5 | 0.566 (0.001) ^e | O=C(O)C(=CC(Br)=Cc1ccccc1)c1ccccc1 [Compound 4i, 4-Bromo-2,5-diphenylpenta-2,4-dienoic acid] | no | 210 ± 1 | 250 ± 1.2
6 | −0.893 (0.002) ^e | O=C(O)C=CC=Cc1ccccc1 [Compound 3ii, 5-Phenylpenta-2,4-dienoic acid] | 81 ± 1.2% | > 240 | > 240
7 | −0.868 (0.019) ^e | O=C(O)C=CC=Cc1ccc([N+](=O)[O-])cc1 [Compound 2ii, 5-(4-Nitrophenyl)penta-2,4-dienoic acid] | no | > 240 | > 240

Row | Structure (SMILES) | RM (±SD) [2] | HO (%) (±SD) [1] | IC50 (A-549 (lung)) [µM] | IC50 (MDA-MB-231 (breast)) [µM]
8 | N#Cc1ccc(C=CC(=O)O)cc1 [Compound 1ii, 3-(4-Cyanophenyl)acrylic acid] | −0.972 (0.032) ^e | no | > 240 | > 240

— paper PMC6270778, “Novel Cinnamic Acid Derivatives as Antioxidant and Anticancer Agents: Design, Synthesis and Modeling Studies” (Molecules, 2014)
